Experimental data as given in US10682332B2, “Method for treating melanoma” (Huanggang normal University, priority 2017, dated 2020).

Legend:
[1] = test system: human melanoma cancer cell A2058; experiment: Growth inhibition of human melanoma cancer cell A2058; type: cell-based; conditions: 3.125-50 μmol solutions, 48 hrs culturing, absorbance
Experimental: (§1) The study was conducted using human melanoma cancer cell line A2058 or A375 as follows: culturing the cell line in DMEM medium; adding 5-hydroxy-3,6,7,8,3′,4′-hexamethoxyflavone with varying concentrations (3.125, 6.25, 12.5, 25, 50 μmol in 100 μl of 2% DMSO solution per liter of the medium); collecting the control and treated cells after 48 hrs of culturing and determining the cell viability by measuring light absorbance of the cells; and calculating the IC50 rate in the human melanoma cancer cells.
(§2) The cells derived from human melanoma lines A2058 and A375 were cultured in DMEM medium containing 100 U/mL penicillin, 100 μg/ml streptomycin, and 10% fetal bovine serum at a temperature of 37° C. and with carbon dioxide at a concentration of 5%. The cultured cells were divided into 6 study groups and each would be treated with 5-hydroxy-3,6,7,8,3′,4′-hexamethoxyflavone of a different concentration. […] After culturing for 48 hrs, the cells were collected and the absorbance of each treatment group was measured for calculating the IC50 rate in human melanoma cancer cell A2058 by the treatment. […]

[2] = test system: human melanoma cancer cell A375; experiment: Growth inhibition of human melanoma cancer cell A375; type: cell-based; conditions: 3.125-50 μmol solutions, 48 hrs culturing, absorbance
Experimental: as §1, §2

[3] = test system: human melanoma cancer cell A375-engrafted C57BL/6 mice; experiment: Tumor growth in human melanoma cancer cell A375-engrafted C57BL/6 mice; type: in vivo, mouse; conditions: fed 0.4 mL of 0.5 μmol solution once every 2 days, 28 days after inoculation; control 2450 mm^3
Experimental: The study was carried out as follows: inoculating C57BL/6 mice with of the human melanoma cancer cells; dividing the mice into 2 groups with 8 mice in each group and treating them once every two days with (i) 0.4 ml of 2% DMSO, (ii) 0.4 ml of 2% DMSO containing 0.5 μmol of 5-hydroxy-3,6,7,8,3′,4′-hexamethoxyflavone; measuring tumor sizes after animal sacrificing 28 days post tumor cell inoculation.
The experimental C57BL/6 mice were divided into 2 groups, with 8 in each group. Each mouse was fed with 0.4 mL of 0.5 μmol 5-hydroxy-3,6,7,8,3′,4′-hexamethoxyflavone solution as in the treatment group or with 0.4 mL 2% DMSO solution as in the control group at a frequency of once every 2 days. Each mouse was inoculated with human melanoma cancer cell A375 following a standard protocol. 28 days after of the inoculation, the mice were sacrificed. Finally, sizes of tumors in each group of mice were measured and their averages were calculated.

[4] = test system: human melanoma cancer cell A375; experiment: Cell cycle arrest by PI staining and flow cytometry; type: cell-based; conditions: 24 hrs, control 1.4%
Experimental: To further elucidate the mechanism of growth inhibition of the human melanoma cancer cells by 5-hydroxy-3,6,7,8,3′,4′-hexamethoxyflavone, another study was carried out using only human melanoma cancer cell A375 and 3 study groups. In one liter of the culturing media, 100 μL of 25 and 50 μmol of 5-hydroxy-3,6,7,8,3′,4′-hexamethoxyflavone prepared solutions were added to two study groups. The control group was only treated with 2% DMSO solution.
The studied cells were incubated for 24 hrs before collected in a centrifuge tube. The cells were then washed with PBS at 4° C. and n mixed with 70% ethanol pre-cooled at −20° C. before kept at 4° C. overnight. Next, the cells were centrifuged at 1000 rpm to remove ethanol and the cell density was adjusted to (1-2)×10^6 cells/mL by add PBS. Following adding PI and DNase-free RNase to respectively reach final concentrations of 50 μg/mL and 50 µg/mL, the cells were stained for cell cycle and apoptosis studies by flow cytometry. All studies were repeated 3 times and the averages were calculated.

COc1ccc(-c2oc3c(OC)c(OC)c(OC)c(O)c3c(=O)c2OC)cc1OC [2-(3,4-dimethoxy-phenyl)-5-hydroxy-3,6,7,8-tetramethoxy-chromen-4-one]
growth of human melanoma cancer cell A2058 [1]: inhibited the growth
growth of human melanoma cancer cell A375 [2]: inhibited the growth
average tumor size [3]: 890 mm^3
G1 phase cells of the total cells ([4]; 25 μmol drug solution): 9.4%
G1 phase cells of the total cells ([4]; 50 μmol drug solution): 25%
